Laboratory results as given in patent US20090182026A1, “ALPHA 2 ADRENERGIC AGONISTS” (ALLERGAN, INC., priority 2005, published 2009).
Entries after “also recorded” stand apart in the source; their conditions may differ.

What was measured:
tactile hypersensitivity = assay: Mouse model of tactile hypersensitivity (sulprostone); type: in vivo, Mice; details: for activity in mouse model of tactile hypersensitivity: general statement, no dose
Method: Mice (5-6; 25-35 g) are injected with sulprostone (300 ng/kg intraperitoneal), a prostaglandin receptor agonist that activates EP1 prostaglandin receptors. This chemical stimulus results in sensitivity to light stroking of their flanks with a paintbrush, which is assessed every five minutes from 15 minutes to 50 minutes post-injection. Animals are scored as 0 (no response), 1 (avoidance) or 2 (vigorous avoidance, vocalization) every five minutes and the scores are summed to yield a total hypersensitivity score (maximum=16).
Compounds were tested for their ability to reduce the tactile hypersensitivity score when administered 15 min prior to the sulprostone. […] An oral dose of 300 ug/kg was also active. An ester prodrug, compound 3, was also tested orally.

alpha2B receptor = target: T1, alpha2B receptor (Homo sapiens, UniProt P18089); assay: RSAT assay, alpha2B receptor; type: cell-based; details: NIH-3T3 cells, relative to brimonidine, NA = not active at concentrations less than 10 micromolar
T1 construct: expressed in transfected cells; host or cells: NIH-3T3
T1 sequence (P18089 1-450): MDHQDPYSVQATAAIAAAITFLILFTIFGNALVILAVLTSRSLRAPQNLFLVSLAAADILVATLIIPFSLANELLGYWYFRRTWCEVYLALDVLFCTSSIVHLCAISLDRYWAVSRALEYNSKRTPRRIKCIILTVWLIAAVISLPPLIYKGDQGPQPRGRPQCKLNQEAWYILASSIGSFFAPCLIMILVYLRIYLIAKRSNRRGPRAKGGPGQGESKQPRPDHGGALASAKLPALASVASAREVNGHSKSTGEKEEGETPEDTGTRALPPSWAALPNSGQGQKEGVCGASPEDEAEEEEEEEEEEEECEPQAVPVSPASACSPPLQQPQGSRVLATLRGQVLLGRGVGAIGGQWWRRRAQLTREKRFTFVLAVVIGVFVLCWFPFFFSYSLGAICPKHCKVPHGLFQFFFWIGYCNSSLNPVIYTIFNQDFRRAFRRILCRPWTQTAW
Method: (§1) The RSAT assay measures a receptor-mediated loss of contact inhibition that results in selective proliferation of receptor-containing cells in a mixed population of confluent cells. The increase in cell number is assessed with an appropriate transfected marker gene such as […], the activity of which can be easily measured in a 96-well format. Receptors that activate the G protein, Gq, elicit this response. Alpha2 receptors, which normally couple to Gi, activate the RSAT response when coexpressed with a hybrid Gq protein that has a Gi receptor recognition domain, called Gq/i5.
(§2) NIH-3T3 cells are plated at a density of 2×10^6 cells in 15 cm dishes and maintained in Dulbecco's modified Eagle's medium supplemented with 10% calf serum. One day later, cells are cotransfected by calcium phosphate precipitation with mammalian expression plasmids encoding p-SV-β-galactosidase (5-10 μg), receptor (1-2 μg) and G protein (1-2 μg). 40 μg salmon sperm DNA may also be included in the transfection mixture. Fresh media is added on the following day and 1-2 days later, cells are harvested and frozen in 50 assay aliquots. Cells are thawed and 100 μl added to 100 μl aliquots of various concentrations of drugs in triplicate in 96-well dishes. Incubations continue 72-96 hr at 37° C. After washing with phosphate-buffered saline, β-galactosidase enzyme activity is determined by adding […] of the chromogenic substrate (consisting of 3.5 mM o-nitrophenyl-β-D-galactopyranoside and 0.5% nonidet P-40 in phosphate buffered saline), incubating overnight at 30° C. and measuring optical density at 420 nm. The absorbance is a measure of enzyme activity, which depends on cell number and reflects a receptor-mediated cell proliferation. The efficacy or intrinsic activity is calculated as a ratio of the maximal effect of the drug to the maximal effect of a standard full agonist for each receptor subtype. Brimonidine, also called UK14304, the chemical structure of which is shown below, is used as the standard agonist for the alpha2A, alpha2B and alpha2C receptors. […]

alpha2C receptor = target: T2, alpha2C receptor (Homo sapiens, UniProt P18825); assay: RSAT assay, alpha2C receptor; type: cell-based; details: NIH-3T3 cells, relative to brimonidine, NA = not active at concentrations less than 10 micromolar
T2 construct: expressed in transfected cells; host or cells: NIH-3T3
T2 sequence (P18825 1-462): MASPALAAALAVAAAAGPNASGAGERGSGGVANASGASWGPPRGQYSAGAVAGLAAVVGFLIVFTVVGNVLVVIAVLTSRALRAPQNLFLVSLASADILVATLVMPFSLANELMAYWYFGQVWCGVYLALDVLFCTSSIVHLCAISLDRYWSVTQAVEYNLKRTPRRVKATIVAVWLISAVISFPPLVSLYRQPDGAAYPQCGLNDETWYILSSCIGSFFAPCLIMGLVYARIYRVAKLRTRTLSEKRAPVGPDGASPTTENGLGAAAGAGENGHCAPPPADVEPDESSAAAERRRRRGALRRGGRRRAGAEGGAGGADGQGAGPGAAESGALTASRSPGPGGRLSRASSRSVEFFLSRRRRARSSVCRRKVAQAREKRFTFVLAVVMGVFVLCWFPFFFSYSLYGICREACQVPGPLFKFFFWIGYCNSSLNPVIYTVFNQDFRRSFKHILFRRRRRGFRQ
Method: as §1, §2

alpha2A receptor = target: T3, alpha2A receptor (Homo sapiens, UniProt P08913); assay: RSAT assay, alpha2A receptor; type: cell-based; details: NIH-3T3 cells, relative to brimonidine, NA = not active at concentrations less than 10 micromolar
T3 construct: expressed in transfected cells; host or cells: NIH-3T3
T3 sequence (P08913 1-465): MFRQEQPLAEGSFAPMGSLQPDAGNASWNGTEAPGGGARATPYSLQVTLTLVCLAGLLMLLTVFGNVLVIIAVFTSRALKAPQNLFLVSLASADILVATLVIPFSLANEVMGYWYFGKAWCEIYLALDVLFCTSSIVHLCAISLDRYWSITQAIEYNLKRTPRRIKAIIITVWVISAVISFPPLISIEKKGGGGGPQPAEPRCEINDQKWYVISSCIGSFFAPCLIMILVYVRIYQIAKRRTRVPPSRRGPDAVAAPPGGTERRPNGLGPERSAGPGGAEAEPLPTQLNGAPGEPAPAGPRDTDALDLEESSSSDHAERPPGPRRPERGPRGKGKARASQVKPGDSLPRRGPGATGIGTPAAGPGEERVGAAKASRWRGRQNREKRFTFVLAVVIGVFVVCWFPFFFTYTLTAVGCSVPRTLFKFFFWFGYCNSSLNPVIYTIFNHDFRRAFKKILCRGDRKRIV
Method: as §1, §2

locomotor activity [1] = assay: Sedation model, exploratory locomotor activity, rats; type: in vivo; details: for rat locomotor activity: 30 min after dosing (FIG. 3)
Method: (§3) The utility of alpha2-adrenergic agonists is limited by a range of side effects, particularly sedation and cardiovascular depression. The sedative activity of the compounds is assessed by measuring their ability to reduce the exploratory activity of mice and rats when placed in a dark chamber 30 min following dosing. The animal's activity is determined automatically by placing it in a digicom analyzer chamber (Omnitech Electronic). These chambers have photocells criss-crossing the box that are broken as the animal moves around. The computer analyzes this movement and records total activity over a 5-min time period. […] This represents greater than a 300-fold margin of safety (FIG. 4).

locomotor activity [2] = assay: Sedation model, exploratory locomotor activity, mice; type: in vivo
Method: as §3

[3] = test system: intraocular pressure (IOP); assay: IOP model, normotensive rabbits; type: in vivo, New Zealand Rabbits; details: for lowering of IOP: qualitative statement (FIG. 2); for decrease in IOP: topical, rabbit eye (FIG. 2)
Method: Male New Zealand Rabbits (6-7; 2-3.5 kg) are used to evaluate drug effects on normotensive IOP measurements. The rabbits are carefully handled so as to minimize excitement. Approximately 25 ul of dilute OphtheticR (0.05%) topical anesthesia is administered to each eye. An initial IOP determination is made in both eyes. Rabbits with 3 mmHg or greater difference in IOP between its right and left eyes are replaced at this time.
Immediately following the T=0 reading in both eyes the rabbits are treated with the compound by a topical route. 35 ul of the test solution is instilled onto the cornea of the randomly selected test eye. Pressure readings are taken at various times post-instillation. Animals are kept in their cages with access to food and water between measurements. Pressure readings utilize a Model 30 Classic™ Pneumatonometer to measure intraocular pressure (IOP) non-invasively through applanation tonometry. compound 1 (0.1%) caused a 20% decrease in IOP and its ester, AGN 204216 (0.03%), caused a 30% decrease in IOP (FIG. 2)

Alpha adrenergic = Alpha adrenergic activity of prior-application compound (statement); details: background statement
α1 = assay: RSAT assay, α1 receptor; type: cell-based; details: NIH-3T3 cells, ratio of maximal effect to that of standard full agonist, NA = not active at concentrations less than 10 micromolar
Method: as §1
NIH-3T3 cells are plated at a density of 2×10^6 cells in 15 cm dishes and maintained in Dulbecco's modified Eagle's medium supplemented with 10% calf serum. […] After washing with phosphate-buffered saline, β-galactosidase enzyme activity is determined by adding […] of the chromogenic substrate (consisting of 3.5 mM o-nitrophenyl-β-D-galactopyranoside and 0.5% nonidet P-40 in phosphate buffered saline), incubating overnight at 30° C. and measuring optical density at 420 nm. The absorbance is a measure of enzyme activity, which depends on cell number and reflects a receptor-mediated cell proliferation. The efficacy or intrinsic activity is calculated as a ratio of the maximal effect of the drug to the maximal effect of a standard full agonist for each receptor subtype. […]

Brc1c(N=C2NCCN2)ccc2nccnc12 [brimonidine, reference compound]
activity in mouse model of tactile hypersensitivity (tactile hypersensitivity): active

NCC1=CCCC(Cc2c[nH]c(=S)[nH]2)C1 (centres unmarked)
Intrinsic activity α2B (alpha2B receptor): 0.86
Intrinsic activity α2C (alpha2C receptor): 0.95
Intrinsic activity α2A (alpha2A receptor): 0.81

O=C(CC1CCCC1)OCC1=CCCC(Cc2c[nH]c(=S)[nH]2)C1 (centres unmarked) [Compound 3, cyclopentyl-acetic acid 5-(2-thioxo-2,3-dihydro-1H-imidazol-4-ylmethyl)-cyclohex-1-enylmethyl ester]
sedation (locomotor activity [1]; rats, oral dose of 3 mg/kg): did not sedate
sedation (locomotor activity [2]; mice, oral dose of 3 mg/kg): did not sedate
margin of safety / therapeutic window (locomotor activity [2]; oral, mice or rats (FIG. 4)): > 300 fold
lowering of IOP [3]: lower rabbit IOP
decrease in IOP ([3]; 35 ul of 0.03% solution): 30%
effect on tactile hypersensitivity (tactile hypersensitivity; oral dose of 30 ug/kg): full effect
alleviation of tactile hypersensitivity (tactile hypersensitivity; oral dosing, dose response (FIG. 1)): alleviates tactile hypersensitivity; also recorded: very potent at alleviating the tactile sensitivity in a dose-related manner

OCC1=CCCC(Cc2c[nH]c(=S)[nH]2)C1 (centres unmarked) [Compound 1, 4-(3-hydroxymethyl-cyclohex-3-enylmethyl)-1,3-dihydro-imidazole-2-thione]
rat locomotor activity (locomotor activity [1]; intraperitoneal doses up to at least 3 mg/kg): did not decrease rat locomotor activity
rat locomotor activity (locomotor activity [1]; oral doses up to at least 10 mg/kg): did not decrease rat locomotor activity
sedation / decrease of locomotor activity (locomotor activity [1]; qualitative statement, no dose): does not sedate rats
margin of safety (non-sedating dose vs effective dose) (locomotor activity [1]; rat locomotor activity vs tactile hypersensitivity doses): ≥ 30 fold
lowering of IOP [3]: lower rabbit IOP
decrease in IOP ([3]; 35 ul of 0.1% solution): 20%
reduction of tactile hypersensitivity (tactile hypersensitivity; dosed intraperitoneally 15 min prior to sulprostone, dose response): reduced the hypersensitivity in a dose-related manner
effect on tactile hypersensitivity (tactile hypersensitivity; intraperitoneal, 30 ug/kg): partial effect
effect on tactile hypersensitivity (tactile hypersensitivity; intraperitoneal, 100 ug/kg): full effect
total tactile hypersensitivity score (tactile hypersensitivity; intraperitoneal, 100 ug/kg, maximum=16, sulprostone 12-14, vehicle 4-6): 5
effect on tactile hypersensitivity (tactile hypersensitivity; oral dose of 300 ug/kg): active

Clc1cccc(Cl)c1N=C1NCCN1 [clonidine, reference compound]
activity in mouse model of tactile hypersensitivity (tactile hypersensitivity): active

O=c1[nH]cc(CC2CCC=C(CO)C2)[nH]1 (centres unmarked)
Alpha adrenergic activity (Alpha adrenergic): no Alpha adrenergic activity

OCC1=CCCC(Cc2c[nH]c(=S)[nH]2)C1 (centres unmarked) [drawing 35]
Intrinsic activity α1 (α1): 0.93
Intrinsic activity α2B (alpha2B receptor): 0.98
Intrinsic activity α2C (alpha2C receptor): 1.10
Intrinsic activity α2A (alpha2A receptor): 0.85

OCC1=CCC[C@@H](Cc2c[nH]c(=S)[nH]2)C1
Intrinsic activity α1 (α1): 1.1
Intrinsic activity α2B (alpha2B receptor): 1.0
Intrinsic activity α2C (alpha2C receptor): 1.1
Intrinsic activity α2A (alpha2A receptor): 0.9
